For orientation: AC50 means the concentration at which the activity in the assay is half-maximal. One may read the IC50 as the point on the concentration scale where inhibition reaches its midpoint.

SMILES strings stand for the structures. Values joined by “and” are separate entries in the source; they are usually repeats but may differ in a detail not shown here. Equal entries are not always repeated. Active and inactive are the calls of the source.

Here are results for three compounds from ChEMBL document CHEMBL1201862, “PubChem BioAssay data set” (2004).

In assay [1] the target is T1, CAAX prenyl protease 2 (Saccharomyces cerevisiae S288c, UniProt Q03530).
T1 sequence (Q03530 whole entry): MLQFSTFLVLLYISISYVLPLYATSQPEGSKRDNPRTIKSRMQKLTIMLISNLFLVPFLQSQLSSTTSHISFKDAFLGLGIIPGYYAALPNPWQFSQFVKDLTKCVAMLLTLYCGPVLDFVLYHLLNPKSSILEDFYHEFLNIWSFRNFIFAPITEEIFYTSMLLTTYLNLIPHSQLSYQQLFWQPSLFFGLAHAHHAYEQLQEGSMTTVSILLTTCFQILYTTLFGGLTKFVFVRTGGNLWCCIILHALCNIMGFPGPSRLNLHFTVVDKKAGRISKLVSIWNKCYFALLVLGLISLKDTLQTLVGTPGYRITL
Format: biochemical.

Assay [2] addresses Disintegrin and metalloproteinase domain-containing protein 17 (Homo sapiens, UniProt P78536). Description: inhibition of ADAM17 substrate cleavage – biochemical, quenched FRET substrate, counter-screen for ADAM10 exosite inhibitor project, dose response (AID 743253). On the technique in general: A counterscreen serves to expose hits that act by an unwanted route or on another target.

A short description of assay [3]: potency of ADAM10 substrate cleavage blockers – biochemical, QFRET, dose response (AID 743254).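 Note: ADAM10 enzyme with the DM2 quenched FRET peptide as substrate; EDANS fluorescence gain as the protease cuts the substrate; inhibitor potency against ADAM10 proteolytic activity.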
In assay [4] the target is T1, CAAX prenyl protease 2. Description: inhibition of Rce1p peptide cleavage – biochemical, plate reader, dry powder retest, dose response (AID 588851).
Assay [5] concerns INS1. Description: INS-1E mitochondrial potential rescue under cytokines – cell-based, JC-1 fluorescence ratio, dry powder, dose response (AID 488931). Particulars: Rattus norvegicus. Type of assay: functional.
Assay [6] can be described thus: suppression of NO production in INS-1E cells – cell-based, Griess absorbance, dry powder, set 3, dose response (AID 488870). Type of assay: functional. As to conditions: Rattus norvegicus.
Assay [7] has as its system INS1. Description: beta-cell survival under cytokine stress – INS-1E, ATP luminescence, dry powder, dose response (AID 488844). As to conditions: Rattus norvegicus. Format: functional, cell-based.
In assay [8] the test system is INS1. Description: suppression of cytokine-induced beta-cell apoptosis – INS-1E, caspase luminescence, dry powder, beta-cell apoptosis inhibitor project, dose response (AID 488848). Type of assay: functional, cell-based. As to conditions: Rattus norvegicus.
The test system of assay [9] is INS1. Description: suppression of NO production in INS-1E cells – cell-based, Griess absorbance, dry powder, dose response (AID 488866). Format: functional. Particulars: Rattus norvegicus.
Assay [10] concerns INS1. Description: suppression of NO production in INS-1E cells – cell-based, Griess absorbance, dry powder, set 2, dose response (AID 488868). Type of assay: functional. As to conditions: Rattus norvegicus.
Assay [11] in a line: CellTiter-Glo luminescence survival assay, SW480 colon tumor line, concentration-response curve, half-maximal inhibitory concentration (AID 1117338). Type of assay: functional. For orientation: Cellular ATP, detected with luciferase, serves as a proxy for viable cell number.
The target of assay [12] is Latent membrane protein 1 (Human herpesvirus 4 (strain B95-8), UniProt P03230). Description: LMP1 TES1 pathway selectivity over dsRED control – imaging, HEK293T, dual-color eGFP/dsRED, cherry-picks, selectivity assay for LMP1 NF-kB inhibitor project, dose response (AID 588398). Format: functional, cell-based.
Chain of Latent membrane protein 1 (P03230 whole entry): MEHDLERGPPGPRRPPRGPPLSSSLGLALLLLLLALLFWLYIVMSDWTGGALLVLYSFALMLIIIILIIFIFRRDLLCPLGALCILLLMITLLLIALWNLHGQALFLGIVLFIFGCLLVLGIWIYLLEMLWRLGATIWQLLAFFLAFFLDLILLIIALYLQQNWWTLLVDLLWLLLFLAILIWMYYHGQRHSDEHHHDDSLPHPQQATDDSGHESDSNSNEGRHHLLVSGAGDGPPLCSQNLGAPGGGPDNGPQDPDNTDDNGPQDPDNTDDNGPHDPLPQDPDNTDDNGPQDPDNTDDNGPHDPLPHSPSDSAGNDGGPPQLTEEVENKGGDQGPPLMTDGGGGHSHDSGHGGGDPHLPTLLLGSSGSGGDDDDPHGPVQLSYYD
Assay [13] has as its target T2, Exodeoxyribonuclease V (Escherichia coli (strain K12), UniProt P04993+P07648+P08394).
T2 sequence (P04993 whole entry): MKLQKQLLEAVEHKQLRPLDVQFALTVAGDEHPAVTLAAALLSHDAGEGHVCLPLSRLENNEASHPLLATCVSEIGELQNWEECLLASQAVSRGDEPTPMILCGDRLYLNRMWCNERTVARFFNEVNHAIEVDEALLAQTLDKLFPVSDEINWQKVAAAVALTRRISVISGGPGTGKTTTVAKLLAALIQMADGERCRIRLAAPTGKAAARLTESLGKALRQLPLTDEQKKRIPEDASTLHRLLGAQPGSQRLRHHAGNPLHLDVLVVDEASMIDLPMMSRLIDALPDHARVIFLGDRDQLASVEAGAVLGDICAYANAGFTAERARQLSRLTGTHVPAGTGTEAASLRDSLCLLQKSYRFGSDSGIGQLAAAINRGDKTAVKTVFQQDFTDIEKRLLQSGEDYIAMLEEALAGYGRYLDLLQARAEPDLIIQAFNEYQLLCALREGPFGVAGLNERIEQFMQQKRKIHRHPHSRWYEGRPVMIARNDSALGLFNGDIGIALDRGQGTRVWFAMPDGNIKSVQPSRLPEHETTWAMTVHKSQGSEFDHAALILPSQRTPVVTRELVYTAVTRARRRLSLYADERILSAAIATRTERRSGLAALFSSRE
T2 sequence (P07648 whole entry): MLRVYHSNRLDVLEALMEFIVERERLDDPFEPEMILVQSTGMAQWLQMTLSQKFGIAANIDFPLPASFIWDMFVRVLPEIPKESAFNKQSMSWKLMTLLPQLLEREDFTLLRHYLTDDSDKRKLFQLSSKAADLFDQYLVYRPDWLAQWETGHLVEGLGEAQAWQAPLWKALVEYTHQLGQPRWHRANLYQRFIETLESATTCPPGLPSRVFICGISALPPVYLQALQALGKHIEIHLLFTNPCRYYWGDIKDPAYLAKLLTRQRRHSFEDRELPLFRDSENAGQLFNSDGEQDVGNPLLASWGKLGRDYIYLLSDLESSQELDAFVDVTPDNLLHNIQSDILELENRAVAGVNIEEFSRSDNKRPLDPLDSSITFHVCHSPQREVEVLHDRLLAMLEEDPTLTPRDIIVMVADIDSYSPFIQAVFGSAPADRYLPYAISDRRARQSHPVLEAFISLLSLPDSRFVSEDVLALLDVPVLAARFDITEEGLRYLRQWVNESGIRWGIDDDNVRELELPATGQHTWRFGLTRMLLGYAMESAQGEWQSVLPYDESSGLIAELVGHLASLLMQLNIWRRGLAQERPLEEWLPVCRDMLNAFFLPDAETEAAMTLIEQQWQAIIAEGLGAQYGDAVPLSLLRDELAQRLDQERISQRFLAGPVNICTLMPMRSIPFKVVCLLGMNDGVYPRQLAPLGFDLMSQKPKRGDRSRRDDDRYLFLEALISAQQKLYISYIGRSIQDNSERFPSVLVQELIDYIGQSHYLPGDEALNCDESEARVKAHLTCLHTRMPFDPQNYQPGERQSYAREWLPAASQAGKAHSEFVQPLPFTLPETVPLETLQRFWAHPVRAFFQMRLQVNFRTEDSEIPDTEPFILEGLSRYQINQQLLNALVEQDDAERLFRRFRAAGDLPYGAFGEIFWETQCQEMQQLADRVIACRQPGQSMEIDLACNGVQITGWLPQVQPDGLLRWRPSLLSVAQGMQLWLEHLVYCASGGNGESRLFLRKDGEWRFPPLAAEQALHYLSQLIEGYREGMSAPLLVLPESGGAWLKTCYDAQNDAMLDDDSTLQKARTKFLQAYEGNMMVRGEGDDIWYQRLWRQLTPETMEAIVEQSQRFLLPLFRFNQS
T2 sequence (P08394 whole entry): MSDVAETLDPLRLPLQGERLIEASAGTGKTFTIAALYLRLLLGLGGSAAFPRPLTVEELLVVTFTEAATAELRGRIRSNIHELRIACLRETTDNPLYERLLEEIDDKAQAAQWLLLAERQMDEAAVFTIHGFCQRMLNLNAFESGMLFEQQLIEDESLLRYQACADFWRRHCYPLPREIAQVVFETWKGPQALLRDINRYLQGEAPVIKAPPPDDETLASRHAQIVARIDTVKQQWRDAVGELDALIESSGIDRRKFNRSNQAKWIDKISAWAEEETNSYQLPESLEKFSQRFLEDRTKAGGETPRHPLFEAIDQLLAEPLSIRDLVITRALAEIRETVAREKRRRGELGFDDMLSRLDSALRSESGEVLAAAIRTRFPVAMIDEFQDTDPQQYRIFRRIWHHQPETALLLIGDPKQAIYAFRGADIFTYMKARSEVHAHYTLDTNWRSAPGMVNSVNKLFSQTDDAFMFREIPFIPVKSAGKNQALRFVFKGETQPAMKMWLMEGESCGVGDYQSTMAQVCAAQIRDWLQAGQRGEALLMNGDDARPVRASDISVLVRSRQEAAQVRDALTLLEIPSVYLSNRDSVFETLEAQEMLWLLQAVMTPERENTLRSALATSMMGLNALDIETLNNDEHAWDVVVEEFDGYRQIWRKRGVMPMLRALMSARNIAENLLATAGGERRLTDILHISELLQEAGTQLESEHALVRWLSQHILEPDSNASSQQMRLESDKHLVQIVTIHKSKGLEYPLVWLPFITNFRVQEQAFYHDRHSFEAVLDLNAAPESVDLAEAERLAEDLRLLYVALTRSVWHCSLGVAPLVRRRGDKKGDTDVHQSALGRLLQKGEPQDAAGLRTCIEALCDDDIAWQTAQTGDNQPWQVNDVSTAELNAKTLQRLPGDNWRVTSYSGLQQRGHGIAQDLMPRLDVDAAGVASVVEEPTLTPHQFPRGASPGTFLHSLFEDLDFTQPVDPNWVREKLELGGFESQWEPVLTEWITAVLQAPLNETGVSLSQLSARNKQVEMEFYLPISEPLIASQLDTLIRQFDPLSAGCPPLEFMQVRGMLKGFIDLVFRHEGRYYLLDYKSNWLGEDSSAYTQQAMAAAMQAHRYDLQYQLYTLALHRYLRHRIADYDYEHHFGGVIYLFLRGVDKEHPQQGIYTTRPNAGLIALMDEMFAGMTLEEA
Description: RecBCD inhibition via phage-restricted bacterial growth – absorbance, V66 E. coli, mutant T4 phage, counter-screen for AddAB inhibitor project, dose response (AID 492957). Type of assay: functional, cell-based, Escherichia coli str. K-12 substr. MG1655.

A short description of assay [14]: Luminescence-based dose response cell-based high throughput screening assay for cytotoxic compounds using the IEC-6 intestinal epithelial cell line. [Related pubchem assays: 1858 (Summary AID.), 1825 (Counterscreen.), 1907 (Confirmation screen.)]. Format: functional.
Assay [15] is described as follows: Luminescence Cell-Based Dose Retest to Confirm Inhibitors of Cancer Stem Cells. [Related pubchem assays (depositor defined):AID2717, AID2721]. Type of assay: functional. Particulars: Homo sapiens.
The nature of assay [16]: HEK-293T cell viability reduction – luminescence, B-cell screen hits, cytotoxicity control for BCR NF-kB inhibitor project, dose response (AID 489021).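 Note: HEK-293T cells carrying an NF-kB luciferase reporter; cells exposed to compound for about 14 hours before viability readout.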 Type of assay: functional, cell-based.
Assay [17] is described as follows: cytotoxicity toward Colo320 cells – cell-based, CellTiter-Glo luminescence, IC50, dose response (AID 1117334). Type of assay: functional. As to conditions: COLO 320.
The nature of assay [18]: cytotoxicity toward HT-29 cells – cell-based, CellTiter-Glo luminescence, IC50, dose response (AID 1117330). Format: functional.
The test system of assay [19] is HEK293. Description: EBV LMP1 TES2 canonical NF-kB signalling blockers – cell-based, HEK293, luciferase, cherry-pick, dose response (AID 588343). Particulars: Homo sapiens. Type of assay: functional.
The nature of assay [20]: SNU-C1 cell viability reduction, dose response, CellTiter-Glo luminescence (AID 1117323). Type of assay: functional, cell-based.
Assay [21] can be described thus: Reduced DLD-1 viability, concentration-response, CellTiter-Glo luminescence (AID 1117352). Type of assay: functional.

Chain of Disintegrin and metalloproteinase domain-containing protein 17 (P78536 whole entry, the tested form may be a part): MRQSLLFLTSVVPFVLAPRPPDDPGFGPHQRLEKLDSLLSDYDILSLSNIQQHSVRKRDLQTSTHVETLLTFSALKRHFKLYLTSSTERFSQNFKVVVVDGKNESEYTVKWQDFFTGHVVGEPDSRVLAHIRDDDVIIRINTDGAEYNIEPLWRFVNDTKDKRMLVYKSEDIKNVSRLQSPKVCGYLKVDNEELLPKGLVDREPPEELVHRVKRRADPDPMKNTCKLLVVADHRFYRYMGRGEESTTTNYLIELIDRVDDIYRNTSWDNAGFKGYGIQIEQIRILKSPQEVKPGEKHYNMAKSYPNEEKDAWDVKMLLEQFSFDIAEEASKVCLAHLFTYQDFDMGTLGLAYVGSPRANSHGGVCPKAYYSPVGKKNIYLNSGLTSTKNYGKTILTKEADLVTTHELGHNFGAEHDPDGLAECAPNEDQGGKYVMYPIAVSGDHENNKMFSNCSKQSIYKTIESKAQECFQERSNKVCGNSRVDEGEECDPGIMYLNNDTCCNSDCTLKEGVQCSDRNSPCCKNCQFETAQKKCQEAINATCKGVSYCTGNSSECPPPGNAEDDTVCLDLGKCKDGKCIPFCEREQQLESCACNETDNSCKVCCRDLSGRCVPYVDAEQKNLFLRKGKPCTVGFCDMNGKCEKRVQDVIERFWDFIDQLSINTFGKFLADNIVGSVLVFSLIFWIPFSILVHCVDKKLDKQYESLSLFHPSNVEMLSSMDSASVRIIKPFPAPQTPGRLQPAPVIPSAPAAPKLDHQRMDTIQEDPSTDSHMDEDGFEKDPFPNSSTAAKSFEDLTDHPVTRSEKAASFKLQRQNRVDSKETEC

On to `CC(C)c1c(C(=O)N/N=C/c2cccc3ccccc23)nnn1-c1nonc1N`, for which the results for the AC50 in assay [1] and in assay [4] were 0.117 µM (active) and 3.25 µM (active), respectively. Also, the IC50 in assay [2] and in assay [3] was > 69.5 µM (inactive) each time.

As for `COc1ccc(S(=O)(=O)N(C)C[C@@H]2Oc3c(NC(=O)Nc4cccc5ccccc45)cccc3C(=O)N([C@@H](C)CO)C[C@H]2C)cc1C`, the concentration at half-maximal activity (AC50) in assay [5] was 4.91 µM (active); in [6], 34.5 µM (active); in [7], 0.436 µM (active); in [8], 0.414 µM (active); in assay [9], 45.2 µM (active); in assay [10], 25.1 µM (active).

`O=c1[nH]c(=O)n([C@H]2C[C@H](O)[C@@H](CO)O2)cc1C(F)(F)F` [TRIFLURIDINE]: the IC50 in assay [11] is > 20 µM (inactive); in assay [13], > 118 µM (inactive) and > 119 µM (inactive); in assay [14] it was 1.75 µM (active); in [16] it was > 80 µM (inactive); in assay [17] it was > 20 µM (inactive); in assay [18] it was > 20 µM (inactive). Besides, the IC50 in [20] and in assay [21] was > 20 µM (inactive) each time. The concentration at half-maximal activity (AC50) in assay [12] was 1.13 µM (active); in assay [15], 1.66 µM (active); in assay [19], 3.28 µM (active).
